# Laboratory results taken from ChEMBL document CHEMBL5226287, “Small organic molecules targeting the energy metabolism of Mycobacterium tuberculosis” (Eur J Med Chem, 2021).
# Starred links: 1 amine or outer side, 2 acyl side, 3 side chain; linkers in the order of their positions; H or OH if unused. Non-standard residues stand in square brackets, D forms with d. Residues, ends and D or L forms follow the SMILES beside them. ξ: configuration not given here. *: point of attachment. X1 = CCC(=O)C[C@@H](O)C[C@@H](C)C[C@H](N[*:1])C(=O)[*:2]; Alaψ(CH2NMeCH2CH2OH) = C[C@@H](CN(C)CCO)N*; Decanoyl(2R-Me) = CCCCCCCC[C@@H](C)C(=O)*; Ile(3ξ) = CCC(C)[C@H](N)C(=O)O; ξβ3hP = O=C(O)CC1CCCN1; Aib = CC(C)(N)C(=O)O
# Assays:
# [1] = system: Mycobacterium tuberculosis; experiment: Antibacterial activity against Mycobacterium tuberculosis assessed as inhibition of bacterial growth in the presence of NADH II dehydrogenase; assay type: functional, organism-based
# [2] = system: Mycobacterium tuberculosis; experiment: Antitubercular activity against Mycobacterium tuberculosis H37Rv incubated for 14 days in GAST/FE medium by Alamar blue assay; assay type: functional; conditions: 336 h, time 14 day
# [3] = system: Mycobacterium tuberculosis; experiment: Antitubercular activity against Mycobacterium tuberculosis H37Rv assessed as growth inhibition in presence of ATP; assay type: functional
# [4] = system: Mycobacterium tuberculosis; experiment: Antibacterial activity against Mycobacterium tuberculosis H37Rv ATCC 25618 assessed as complete inhibition of bacterial growth measured after 5 days by spectrophotometry method; assay type: functional; conditions: H37Rv ATCC 25618, 120 h, time 5 day
# [5] = system: Mycobacterium tuberculosis; experiment: Antitubercular activity against Mycobacterium tuberculosis H37Rv assessed as inhibition of bacterial growth by fluorescence based analysis; assay type: functional
# [6] = system: Mycobacterium tuberculosis; experiment: Antibacterial activity against Mycobacterium tuberculosis H37Rv assessed as inhibition of bacterial growth by microdilution method; assay type: functional
# [7] = system: Mycobacterium tuberculosis; experiment: Antibacterial activity against Mycobacterium tuberculosis H37Rv assessed as reduction in bacterial growth in the presence of resazurin reduction under microplate alamarBlue assay; assay type: functional
# [8] = system: Mycobacterium tuberculosis; experiment: Antibacterial activity against Mycobacterium tuberculosis cytochrome bd oxidase assessed as reduction in bacterial growth in the presence of resazurin reduction under microplate alamarBlue assay; assay type: functional
# [9] = system: Mycobacterium tuberculosis; experiment: Antibacterial activity against Mycobacterium tuberculosis cytochrome bd oxidase assessed as reduction in bacterial growth in the presence of resazurin reduction under by microdilution method; assay type: functional
# [10] = system: Mycobacterium tuberculosis; experiment: Antimycobacterial activity against Mycobacterium tuberculosis H37Rv; assay type: functional, organism-based
# [11] = system: Mycobacterium tuberculosis; experiment: Antibacterial activity against Mycobacterium tuberculosis H37Rv-LP ATCC 25618 assessed reduction in bacterial growth by microplate alamar blue assay; assay type: functional
# [12] = system: Mycobacterium tuberculosis; experiment: Antibacterial activity against Mycobacterium tuberculosis H37Rv ATCC 27294 assessed as reduction in microbial growth in GAST media; assay type: functional
# [13] = Kinetic aqueous solubility of the compound in 2.5% DMSO/PBS at pH 7.4 incubated for 2 hrs by nephelometry analysis; assay type: physicochemical; conditions: PBS with 2.5% DMSO, read-out: Kinetic_solubility
# [14] = system: Mycobacterium tuberculosis; experiment: Antibacterial activity against Mycobacterium tuberculosis H37Rv ATCC assessed as reduction in bacterial growth by microdilution method; assay type: functional
# [15] = system: Mycobacterium tuberculosis; experiment: Antibacterial activity against Mycobacterium tuberculosis H37Rv after 7 days by resazurin dye-based assay; assay type: functional; conditions: time 7 day
# [16] = system: Mycobacterium tuberculosis; experiment: Antibacterial activity against Mycobacterium tuberculosis H37Rv assessed as greater inhibition of microbial growth in presence of depletion of ATP levels by microplate alamar blue assay; assay type: functional, organism-based
# [17] = system: Mycobacterium tuberculosis; experiment: Antibacterial activity against Mycobacterium tuberculosis H37Rv in the presence of ATP synthase; assay type: functional
# [18] = Inhibition of Mycobacterium tuberculosis H37Rv ATP synthase
# [19] = system: Mycobacterium tuberculosis; experiment: Inhibition of ATP synthesis in Mycobacterium tuberculosis H37Rv derived membrane vesicle incubated for 60 mins by luciferase based assay; assay type: functional; conditions: 1 h
# [20] = system: Mycobacterium tuberculosis; experiment: Antibacterial activity against ATP synthesis in Mycobacterium tuberculosis H37Rv derived membrane vesicle incubated for 60 mins by luciferase based assay; assay type: functional; conditions: 1 h
# [21] = system: Mycobacterium tuberculosis; experiment: Antibacterial activity against Mycobacterium tuberculosis H37Rv-MA ATCC 27294 assessed reduction in bacterial growth by microplate alamar blue assay; assay type: functional
# [22] = Lipophilicity, log P of the compound at pH 6.5; assay type: physicochemical; conditions: buffer
# [23] = system: Mycolicibacterium smegmatis; experiment: Antibacterial activity against Mycobacterium smegmatis assessed as inhibition of bacterial growth in the presence of NADH II dehydrogenase; assay type: functional, organism-based
# [24] = system: Mycobacterium tuberculosis; experiment: Antimycobacterial activity against Mycobacterium tuberculosis H37Rv after 14 days; assay type: functional; conditions: 336 h, time 14 day
# [25] = Inhibition of Mycobacterium tuberculosis TFP incubated for 60 mins by UPLC based assay
# [26] = system: Mycobacterium tuberculosis; experiment: Antitubercular activity against Mycobacterium tuberculosis H37Rv infected in THP-1 cells assessed as intracellular bacterial growth measured over 6 days; assay type: functional; conditions: 144 h, time 6 day
# [27] = Inhibition of Mycobacterium smegmatis ptpB expressed in Escherichia coli […] cells in the presence of ATP cells using 6,8-difluoromethylumbelliferyl phosphate as substrate incubated for 30 mins by fluorescence based assay; parameters: species or system Mycolicibacterium smegmatis
# [28] = system: Mycobacterium tuberculosis; experiment: Antibacterial activity against Mycobacterium tuberculosis H37Rv in macrophages by CLSI broth microdilution method; assay type: functional
# [29] = system: Mycobacterium tuberculosis; experiment: Antibacterial activity against Mycobacterium tuberculosis H37Rv assessed as reduction bacterial growth after 14 days by micro broth dilution method; assay type: functional; conditions: 336 h, time 14 day
# HepG2 = experiment: Cytotoxicity against human HepG2 cells assessed as cell viability at 100 uM by MTT assay; assay type: functional; conditions: read-out: TD50 (the source's name)
smiles,measurement,setting,value
C=CCN1NC(C(=O)N2CCSCC2)C2CC(NCc3ccc(Cl)s3)CCC21 (stereo not drawn),IC50,[1],64.7 nM
Cc1ccc(-c2nc3ccc(C)cn3c2CC(=O)N(C)C)cc1 [ZOLPIDEM],MIC,[2],10 µM
O=C(CNC1CCCCC1)N(c1ccccc1)c1ccccc1,MIC,[3],5.23 µg/mL
CCc1ccn2c(C(=O)NCc3ccc(C)cc3)c(C)nc2c1,MIC,[2],0.004 µM
CCc1nc2ccccc2n1CCCCNc1ccccc1,MIC99,[4],0.47 µM
Cc1ccc2nc(C)c(C(=O)NCc3ccc(C(F)(F)F)cc3)n2c1,MIC,[5],0.03 µM
COc1ccc(CNC(=O)c2c(C)nc3ccc(Br)cn23)cc1,MIC,[6],> 50 µM
same,MIC,[7],0.15 µM
same,MIC,[8],< 0.024 µM
same,MIC,[9],< 0.024 µM
Cc1ccn2c(C(=O)NCc3ccccc3)c(C)nc2c1,IC50,[10],150 nM
CCc1nc2ccc(C)cc2n1CCCCOc1ccccc1,MIC50,[11],0.34 µM
O=C(CSc1nc2ccccc2c(=O)[nH]1)NC1CCC(F)(F)CC1,MIC,[12],0.5 µM
O=C(CSc1nc2ccccc2c(=O)[nH]1)NCC1CCC(F)(F)CC1,MIC,[12],0.8 µM
same,solubility kinetic at 2 h,[13],250 µM
same,IC90,[14],5.1 µM
CCSc1nc(NC)c2ccc(F)c(F)c2n1,TD50,[15],0.02 µg/mL
CCc1nc2ccc(C)cc2n1CCCNc1ccc(C)cc1,MIC99,[4],0.061 µM
CCCCNc1nc(CC)nc2sc(C)cc12,IC50,[16],840 nM
CN(C)CCN1CCN(c2ccc(-c3cc4cc(Br)ccc4nc3OCc3ccc4ccccc4c3)cc2)CC1,MIC,[17],0.44 µg/mL
same,IC50,[18],38.8 µM
Nc1c2c(nc3sc4c(c13)CCCCC4)CCCC2,IC50,[19],3.4 µM
same,MIC50,[20],1.7 µM
Cc1ccn2c(C(=O)NCc3cccc(OC(C)C)c3)c(C)nc2c1,IC50,[10],390 nM
CCc1nc2ccccc2n1CCCCSc1nc(-c2ccccc2)cs1,MIC50,[21],5.3 µM
O=C(CSc1nc2ccccc2c(=O)[nH]1)NC1CCCCC1,MIC,[12],0.3 µM
same,solubility kinetic at 2 h,[13],83 µM
CCCCCCCC[C@@H](C)C(=O)N1CCCC1CC(=O)N[C@@H](C[C@H](C)C[C@H](O)CC(=O)CC)C(=O)NC(C)(C)C(=O)NC(C)(C)C(=O)N[C@H](C(=O)N[C@H](C(=O)NC(C)(C)C(=O)NC(C)(C)C(=O)N[C@@H](C)CN(C)CCO)C(C)C)C(C)CC (stereo partly drawn) ({Decanoyl(2R-Me)}-[ξβ3hP][X1][Aib][Aib][Ile(3ξ)]V[Aib][Aib]-{Alaψ(CH2NMeCH2CH2OH)}),logD,[22],4.37
O=C(CSc1nc2cccc(F)c2c(=O)[nH]1)NC1CCC(F)(F)CC1,IC50,[23],10.7 nM
O=C(/C=C/c1cccs1)N1CCN(Cc2ccc3c(c2)OCO3)CC1,MIC,[24],0.05 µM
same,IC50,[25],0.1 µg/mL
same,MIC,[26],0.4 µM
O=C(/C=C/c1cscn1)N1CCN(Cc2ccc3c(c2)OCO3)CC1,MIC,[24],0.1 µM
same,MIC,[26],0.6 µM
Cc1ccc2nc(C)c(C(=O)NCc3ccc(Cl)nc3)n2c1,MIC,[5],5 µM
O=C(CNC1CCCC1)N(c1ccccc1)c1ccccc1,MIC,[3],6.25 µg/mL
CN(C)Cc1ccc(-c2cc3cc(Br)ccc3nc2OCc2ccncc2)cc1,MIC,[17],0.43 µg/mL
same,IC50,[18],20.3 µM
COc1ccc(/C=C2/S/C(=N/N=C/c3ccccc3O)NC2=O)cc1,IC50,[27],312 nM
same,MIC90,[28],4 µg/mL
same,MIC90,[29],0.5 µg/mL
CCNc1nc(SCC)nc2ccccc12,CC50,HepG2,> 5 µg/mL
same,TD50,[15],0.09 µg/mL
